# Data as given in US8962608B2, “Cycloalkylnitrile pyrazole carboxamides as janus kinase inhibitors” (Merck Sharp & Dohme Corp., priority 2011, dated 2015).
# Target: JAK2 (recombinant purified GST-tagged catalytic domain) (Homo sapiens (Human), UniProt O60674)
# Experiment: biochemical
# 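Also: biochemical JAK kinase assay with HTRF detection.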
# Chain of JAK2 (recombinant purified GST-tagged catalytic domain) (O60674 849-1124): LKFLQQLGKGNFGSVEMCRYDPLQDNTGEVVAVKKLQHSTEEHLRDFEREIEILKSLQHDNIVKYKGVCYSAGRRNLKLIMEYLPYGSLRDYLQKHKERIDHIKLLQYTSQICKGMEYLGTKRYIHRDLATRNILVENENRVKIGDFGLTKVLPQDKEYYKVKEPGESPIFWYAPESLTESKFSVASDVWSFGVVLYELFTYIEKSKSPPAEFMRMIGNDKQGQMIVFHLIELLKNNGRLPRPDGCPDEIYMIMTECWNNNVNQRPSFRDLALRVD
row,IC50 [nM],SMILES
1,33,"N#C[C@H]1C[C@@H](NCC(F)F)CC[C@@H]1n1cc(C(N)=O)c(Nc2ccnc(F)c2)n1 (single isomer, unassigned) [Example 28-115, 1-{(1S,2S,4S or 1R,2R,4R)-2-cyano-4-[(2,2-difluoroethyl)amino]cyclohexyl}-3-[(2-fluoropyridin-4-yl)amino]-1H-pyrazole-4-carboxamide]"
2,32,"N#C[C@@H]1C[C@H](OCC2CC2)CC[C@H]1n1cc(C(N)=O)c(Nc2ccc([C@H](O)C(F)(F)F)cc2)n1 (single isomer, unassigned) [Example 26-6, 1-[(1R,2R,4R or 1S,2S,4S)-2-cyano-4-(cyclopropylmethoxy)cyclohexyl]-3-({4-[(1S or 1R)-2,2,2-trifluoro-1-hydroxyethyl]phenyl}amino)-1H-pyrazole-4-carboxamide]"
3,22,"N#Cc1ccc(Nc2nn([C@H]3CCCC[C@@H]3C#N)cc2C(N)=O)cn1 (single isomer, unassigned) [Example 17-75, 1-[(1R,2R or 1S,2S)-2-cyanocyclohexyl]-3-[(6-cyanopyridin-3-yl)amino]-1H-pyrazole-4-carboxamide]"
4,285,"CC1(C)CN([C@@H]2CC[C@H](n3cc(C(N)=O)c(Nc4ccc(C(F)(F)F)cc4)n3)[C@@H](C#N)C2)C1 (single isomer, unassigned) [Example 28-203, 1-[(1S,2S,4R or 1R,2R,4S)-2-cyano-4-(3,3-dimethylazetidin-1-yl)cyclohexyl]-3-{[4-(trifluoromethyl)phenyl]amino}-1H-pyrazole-4-carboxamidc]"
5,14,"N#C[C@H]1CC(N2CCC[C@@H]2CF)CC[C@@H]1n1cc(C(N)=O)c(Nc2ccc(S(=O)(=O)C(F)(F)F)cc2)n1 (single isomer, unassigned) [Example 28-156, 1-{(1S,2S or 1R,2R)-2-cyano-4-[(2R)-2-(fluoromethyl)pyrrolidin-1-yl]cyclohexyl}-3-({4-[(trifluoro-methyl)sulfonyl]phenyl}amino)-1H-pyrazole-4-carboxamide]"
6,4,"N#C[C@H]1C[C@@H](NCC(F)F)CC[C@@H]1n1cc(C(N)=O)c(Nc2ccc(S(=O)(=O)C(F)(F)F)cc2)n1 (single isomer, unassigned) [Example 28-165, 1-{(1S,2S,4S or 1R,2R,4R)-2-cyano-4-[(2,2-difluoroethyl)amino]cyclohexyl}-3-({4-[(trifluoro-methyl)sulfonyl]phenyl}amino)-1H-pyrazole-4-carboxamide]"
7,9,"N#C[C@H]1C[C@H](OCC2CC2)CC[C@@H]1n1cc(C(N)=O)c(Nc2ccc([C@H](O)C(F)(F)F)cc2)n1 (single isomer, unassigned) [Example 26-7, 1-[(1S,2S,4R or 1R,2R,4S)-2-cyano-4-(cyclopropylmethoxy)cyclohexyl]-3-({4-[(1S or 1R)-2,2,2-trifluoro-1-hydroxyethyl]phenyl]amino)-1H-pyrazole-4-carboxamide]"
8,400,"CN(C)[C@@H]1CC[C@@H](n2cc(C(N)=O)c(Nc3ccc(C(F)(F)F)nc3)n2)[C@H](C#N)C1 (single isomer, unassigned) [Example 28-18, 1-[(1R,2R,4R or 1S,2S,4S)-2-cyano-4-(dimethylamino)cyclohexyl]-3-{[6-(trifluoromethyl)pyridin-3-yl]amino}-1H-pyrazole-4-carboxamide]"
9,11,"N#C[C@H]1C[C@@H](NCC(F)F)CCC1n1cc(C(N)=O)c(Nc2ccc(S(=O)(=O)C(F)(F)F)cc2)n1 (mixture of isomers) [Example 27-14, 1-{(1S,2S,4S and 1R,2R,4R)-2-cyano-4-[(2,2-difluoroethyl)amino]cyclohexyl}-3-({4-[(trifluoromethyl)sulfonyl]phenyl)amino)-1H-pyrazole-4-carboxamide]"
10,17,"N#C[C@H]1C[C@H](N2CCC2)CC[C@@H]1n1cc(C(N)=O)c(Nc2ccc([C@@H](O)C(F)(F)F)cc2)n1 (single isomer, unassigned) [Example 28-85, 1-[(1S,2S,4R or 1R,2R,4S)-4-azetidin-1-yl-2-cyanocyclohexyl]-3-({4-[(1R or 1S)-2,2,2-trifluoro-1-hydroxyethyl]phenyl}amino)-1H-pyrazole-4-carboxamide]"
11,6,"N#C[C@H]1C[C@@H](NCC(F)(F)F)CCC1n1cc(C(N)=O)c(Nc2ccc(S(=O)(=O)C(F)(F)F)cc2)n1 (mixture of isomers) [Example 27-11, 1-{(1S,2S,4S and 1R,2R,4R)-2-cyano-4-[(2,2,2-trifluoroethyl)amino]cyclohexyl}-3-({4-[(trifluoromethyl)sulfonyl]phenyl}amino)-1H-pyrazole-4-carboxamide]"
12,21,"CC1(C)CN([C@H]2CC[C@H](n3cc(C(N)=O)c(Nc4ccc(Cl)cc4)n3)[C@@H](C#N)C2)C1 (single isomer, unassigned) [Example 28-144, 3-[(4-chlorophenyl)amino]-1-[(1S,2S,4S or 1R,2R,4R)-2-cyano-4-(3,3-dimethylazetidin-1-yl)cyclohexyl]-1H-pyrazole-4-carboxamide]"
13,61,"N#C[C@H]1C[C@@H](N2CC3(CCC3)C2)CC[C@@H]1n1cc(C(N)=O)c(Nc2ccccc2)n1 (single isomer, unassigned) [Example 28-136, 1-[(1S,2S,4S or 1R,2R,4R)-4-(2-azaspiro[3.3]hept-2-yl)-2-cyanocyclohexyl]-3-(phenylamino)-1H-pyrazole-4-carboxamide]"
14,155,"CN(C)[C@@H]1CC[C@H](n2cc(C(N)=O)c(Nc3ccc(C(F)(F)F)nc3)n2)[C@@H](C#N)C1 (single isomer, unassigned) [Example 28-25, 1-[(1S,2S,4R or 1R,2R,4S)-2-cyano-4-(dimethylamino)cyclohexyl]-3-{[6-(trifluoromethyl)pyridin-3-yl]amino}-1H-pyrazole-4-carboxamide]"
15,36,"N#C[C@H]1CCCC[C@@H]1n1cc(C(N)=O)c(Nc2ccccc2)n1 (racemic) [Example 2-1, 1-((1S,2S and 1R,2R)-2-cyanocyclohexyl)-3-(phenylamino)-1H-pyrazole-4-carboxamide]"
16,11,"CC1(C)CN([C@@H]2CC[C@H](n3cc(C(N)=O)c(Nc4ccc([C@H](O)C(F)(F)F)cc4)n3)[C@@H](C#N)C2)C1 (single isomer, unassigned) [Example 28-44, 1-[(1S,2S,4R or 1R,2R,4S)-2-cyano-4-(3,3-dimethylazetidin-1-yl)cyclohexyl]-3-({4-[(1S or 1R)-2,2,2-trifluoro-1-hydroxyethyl]phenyl}amino)-1H-pyrazole-4-carboxamide]"
17,33,"N#C[C@H]1CCCC[C@@H]1n1cc(C(N)=O)c(Nc2ccc(S(=O)(=O)Nc3ccc4cccnc4c3)cc2)n1 (single isomer, unassigned) [Example 17-94, 1-[(1R,2R or 1S,2S)-2-cyanocyclohexyl]-3-{[4-(quinolin-7-ylsulfamoyl)phenyl]amino}-1H-pyrazole-4-carboxamide]"
18,13,"N#C[C@H]1C[C@H](OC(=O)Nc2ccccc2)CCC1n1cc(C(N)=O)c(Nc2ccc(F)cc2)n1 (mixture of isomers) [Example 34-3, (1R,3S,4S and 1S,3R,4R)-4-{4-carbamoyl-3-[(4-fluorophonyl)aminol-1H-pyrazol-1-yl}-3-cyanocyclohexyl phenylcarbamate]"
